Reference: PubChem BioAssay (NCI)
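In this assay, cells in 96-well plates receive the compound at five concentrations for 48 hours. Endpoints are linearly interpolated between the surrounding concentrations. Here, GI50 denotes the concentration required for 50% inhibition of growth. Definition used: TGI = concentration required for complete inhibition of growth.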 Peptide text beside a SMILES is read from it. * marks the point of attachment. OSu = O=C1CCC(=O)N1O*; OBn = c1ccc(CO*)cc1; Bn = c1ccc(C*)cc1

How the values were obtained:
Test in all cases: inhibition of tumour cell growth, NCI panel, 48 h
[1] = system: IGROV1 ovarian
[2] = system: U251 CNS
[3] = system: SN12C renal
[4] = system: UACC-62 melanoma
[5] = system: SK-OV-3 ovarian
[6] = system: BT-549 breast
[7] = system: SNB-19 CNS
[8] = system: HOP-62 NSCLC

Compound | TGI [1] [µM] | TGI [2] [µM] | TGI [3] [µM] | TGI [4] [µM] | TGI [5] [µM] | TGI [6] [µM] | TGI [7] [µM] | TGI [8] [µM] | GI50 [1] [µM] | GI50 [2] [nM] | GI50 [3] [µM] | GI50 [4] [nM] | GI50 [6] [nM]
S=C1CSc2c(cnc3ccccc23)N1 | > 100 | > 100 | > 100 | > 100 | > 100 | > 100 | > 100 | > 100 | – | – | – | – | –
Cc1ccc(CC(=O)Nc2ccc(NC(=O)CNC(=O)/C=C/c3ccc(-c4ccccc4)cc3)cc2C(=O)c2ccccc2)cc1 | 21.7 | 8.67 | 9.93 | 30.8 | 27.4 | 24 | 20.3 | 6.95 | – | – | – | – | –
O=C(NC(CO)CO)c1ccc2cc(C(=O)N3CC(CCl)c4ccc([N+](=O)[O-])cc43)[nH]c2c1 (stereo not drawn) | > 100 | > 100 | > 100 | > 100 | > 100 | > 100 | > 100 | > 100 | – | – | – | – | –
CC(C)C[C@H](NC(=O)[C@H](CCc1ccccc1)NC(=O)c1ccc2ccccc2n1)B(O)O | 0.972 | 6.11 | 0.486 | 1.2 | 10.2 | 0.152 | 13.1 | 0.658 | – | – | – | – | –
Nc1ccc(-c2nc3cc(F)ccc3s2)cc1 | > 77.9 | > 80 | > 100 | > 100 | > 100 | > 100 | > 100 | 39.2 | – | – | – | – | –
c1cn[nH]c1 | > 10 | > 10 | > 10 | > 10 | > 10 | – | > 10 | > 10 | – | – | – | – | –
Clc1ccc(-c2nn3c(C45CC6CC(CC(C6)C4)C5)nnc3s2)cc1 | > 100 | > 100 | > 100 | > 100 | > 100 | – | > 100 | > 100 | – | – | – | – | –
COc1ccc(/C=C/C(c2cc(OC)c(OC)c(OC)c2)n2cncn2)cc1O (stereo not drawn) | > 100 | 56.4 | > 100 | > 100 | – | 37.1 | – | – | 5.83 | 50.6 | 7.19 | 47.6 | 71.2
N#CI1OC(C(F)(F)F)(C(F)(F)F)c2ccccc21 | 31.8 | 52.5 | 68 | 38.8 | > 100 | 40.9 | – | > 100 | – | – | – | – | –
Cc1nc2sccn2c1C(=O)OCCOCCOCCOCCOC(=O)c1c(C)nc2sccn12 | > 100 | > 100 | > 100 | > 100 | – | > 100 | > 100 | > 100 | – | – | – | – | –
Clc1cccc(N=C/C=C/Nc2cccc(Cl)c2)c1 | 39.3 | 30.3 | 27 | – | – | 33.2 | – | 30.7 | – | – | – | – | –
COC1=C(OC)C(=O)C(Cc2c(Cl)nc3n2CCS3)=C(C)C1=O | 30.5 | 35.2 | 31.3 | 26.4 | 25.1 | 27.5 | 33.1 | 29.1 | – | – | – | – | –
C=C(COC(=O)C(C)C)[C@H]1Oc2ccc(C(C)=O)cc2[C@@H]1OC(=O)C(C)C | > 100 | > 100 | > 100 | > 100 | > 100 | > 100 | > 100 | > 100 | – | – | – | – | –
CN1N(c2ccccc2)C(=O)C2=NC=C(C#N)C(=N)C21C (stereo not drawn) | > 100 | > 100 | > 100 | > 100 | > 100 | > 100 | > 100 | – | – | – | – | – | –
COc1cc(C2c3cc4c(cc3OC(N3CCOCC3)C2C)OCO4)cc(OC)c1OC(C)=O (stereo not drawn) | > 100 | > 80.9 | > 84.2 | > 84.5 | > 100 | > 100 | > 46.4 | > 95.5 | – | – | – | – | –
COc1cc(C2C3=C(N=C4SC(C(C)=O)=C(C)N42)c2ccccc2CC3)cc(OC)c1OC (stereo not drawn) | > 100 | > 100 | > 100 | > 100 | > 100 | > 100 | > 100 | > 100 | – | – | – | – | –
Cc1ccc(NC(=O)CC(=O)N2N=C(c3ccccc3)C(N=Nc3ccc(S(=O)(=O)CCOS(=O)(=O)O)cc3)C2=O)cc1 (stereo not drawn) | > 100 | > 100 | > 100 | – | – | > 100 | > 100 | > 100 | – | – | – | – | –
O=C1CC(Cl)c2c(Cl)sc(Cl)c21 (stereo not drawn) | 5.09 | – | 3.15 | 4.66 | 33.3 | 13.3 | 24 | 18.6 | – | – | – | – | –
COC1=CCC2=C(CCN(C(=O)C3CCC3)C2Cc2ccc(OC)c(O)c2)C1 (stereo not drawn) | > 100 | > 100 | 54.3 | > 100 | 83.5 | – | > 100 | > 100 | – | – | – | – | –
CC(C)CC(NC(=O)C(N)CCC(=O)OCc1ccccc1)C(=O)NC(COCc1ccccc1)C(=O)NC(Cc1ccccc1)C(=O)ON1C(=O)CCC1=O (stereo not drawn) (H-E(OBn)LS(Bn)F-OSu; configuration not given here) | 72.6 | 68.5 | > 100 | 70 | 87.8 | – | 95.1 | – | – | – | – | – | –
COC(=O)C(N)CCCC(N)C(=O)NC(C)C(=O)NC(CCC(=O)NCCCNc1ccc([N+](=O)[O-])c2[nH]c3ccccc3c(=O)c12)C(N)=O (stereo not drawn) | – | 18.4 | – | 10.8 | 26.7 | 25.7 | 15 | 22.4 | – | – | – | – | –
O=[N+]([O-])c1cc(Cl)ccc1S(=O)(=O)c1cc(Cl)cc2c1NCCC2 | > 100 | – | > 100 | 85.8 | > 100 | > 100 | > 100 | > 100 | – | – | – | – | –
O=Cc1cc(O)c(O)c(/C=N/n2c3ccccc3c3ccccc32)c1 | – | 45.5 | 18.2 | 22.9 | 21.1 | 12.4 | > 100 | 28 | – | – | – | – | –
CC1CN=C(N(C)C(=O)Nc2ccc(Cl)c(Cl)c2)S1 (stereo not drawn) | > 100 | > 100 | > 100 | – | > 100 | – | > 100 | > 100 | – | – | – | – | –
O=C1C=C(NCCc2cc(Br)c(O)c(Br)c2)C(=O)c2[nH]cnc21 | > 100 | > 100 | > 100 | 40 | > 100 | – | > 100 | > 100 | – | – | – | – | –
CC(=O)C(C(=O)C(C)(C)C)C(=O)C(C)(C)C | – | > 100 | > 100 | > 100 | > 100 | > 100 | > 100 | > 100 | – | – | – | – | –
